Converted amounts (≈) assume the structure as drawn. Where two headings read alike, the source gives them in different places.
Key:
[1] = tested on: HHV-2 TK- 10161; assay: Viral CPE inhibition assay (neutral red), HHV-2 TK- CI-10161; assay type: cell-based; conditions: for IC50: 96 h, HHV-2 TK- 10161, Vero-76 cells, neutral red, day 4 post-infection; for SI (Selectivity Index CC50/IC50): HHV-2 TK- 10161
From the text: (§1) Viral CPE inhibition assay to determine KPB-100 anti-HHV-2 TK-mutant activity: HHV-2 thymidine kinase mutant (TK-minus; TK-), CI-10161 was a patient isolate obtained on 11 November 1986 from Bruce Ronnie at Burrows Welcome. It was amplified one time in MA-104 cells. HHV-2 TK- CI-1253 (18 February 1991) was a patient isolate obtained on 05 February 1992 from Bruce Ronnie at the department of medicine at the University of British Colombia and amplified one time in Vero cells. HHV-2 (E194) was the standard wild-type E194 strain from the USU archives. KPB-100 was suspended in water (100 μg/mL). It was diluted 1/2 in minimum essential medium (MEM) solution, then diluted down further in half-log dilutions in MEM solution with 50 μg/mL gentamicin and 2% foetal bovine serum. Each dilution was added to 5 wells of a 96-well plate with an overnight monolayer of 80–100% confluent Vero-76 cells. Acyclovir and cidofovir were tested in parallel as controls. Three wells of each dilution were then infected with virus, and two wells remained uninfected as toxicity controls. The MOI was approximated 0.001 for CI-1253, 0.002 for CI-10161 and 0.017 for E194. When untreated virus control wells reached near complete cytopathic effect (CPE), which was day-four post-infection in each case, plates were stained with neutral red dye (which measures cell viability, thus can be used for quantifying the vitality of both virus-infected and uninfected, drug-treated cell cultures) for approximately 2 h, then supernatant dye was removed and the incorporated dye was extracted in 50:50 Sorensen citrate buffer/ethanol, then read on a spectrophotometer at 540 nm. Optical density (OD) values were normalized based on cell and virus controls, then IC50, 50% cytotoxic concentration (CC50) values, and Selectivity Index (SI) were calculated by regression analysis.

[2] = tested on: HHV-2 E194; assay: Viral CPE inhibition assay (neutral red), HHV-2 E194 wild type; assay type: cell-based; conditions: for IC50: 96 h, HHV-2 E194 (WT), Vero-76 cells, neutral red, day 4 post-infection; for SI (Selectivity Index CC50/IC50): HHV-2 E194
From the text: as §1

[3] = tested on: HHV-2 TK- 1253; assay: Viral CPE inhibition assay (neutral red), HHV-2 TK- CI-1253; assay type: cell-based; conditions: for IC50: 96 h, HHV-2 TK- 1253, Vero-76 cells, neutral red, day 4 post-infection; for SI (Selectivity Index CC50/IC50): HHV-2 TK- 1253
From the text: as §1

[4] = Cytotoxicity in uninfected cultures (neutral red) run with the CPE inhibition assay; assay type: cell-based; conditions: African green monkey, uninfected Vero-76 cells, run in parallel with each virus, read-out: CC50 (50% cytotoxic concentration of compound in uninfected cultures)
From the text: as §1

[5] = tested on: HHV-2 TK-; assay: Viral CPE inhibition assay, HHV-2 TK- (mean of the two TK- isolates); assay type: cell-based
From the text: as §1

[6] = tested on: VACV (WR); assay: microbe, parasite or virus in culture; assay type: cell-based; conditions: Orthopoxvirus vaccinia, Vero 76, 72 h
[7] = tested on: Vero-76 cells; conditions: African green monkey
[8] = tested on: VACV WR-GFP; assay type: cell-based, Vaccinia virus
[9] = tested on: HHV-2, strain G (ATCC VR-734); assay: Standard plaque reduction assay against HHV-2 WT; assay type: cell-based
[10] = tested on: HHV-1 (v2424); assay: HHV-1 virus yield reduction (VYR) assay; assay type: cell-based; conditions: Vero 76, read-out: IC90 (concentration reducing virus yield by 1 log10 or 90%)
[11] = tested on: C1008 cells; assay: Cytotoxicity measured by CPE in plaque reduction; conditions: 25 μg/mL
[12] = tested on: VACV WR-GFP virus (VV.NP-S-EGFP); assay: microbe, parasite or virus in culture; assay type: cell-based, Vaccinia virus; conditions: for IC50: HeLa, 24 h, read-out: IC50 virus spread inhibition
[13] = Vero 76, mean over TK- isolates 1253 and 10161, CPE inhibition, Vero-76 cells, read-out: mean IC50 against HHV-2 TK-

Row | Compound | IC50 [1] | SI (Selectivity Index CC50/IC50) [1] | IC50 [2] | SI (Selectivity Index CC50/IC50) [2] | IC50 [3] | SI (Selectivity Index CC50/IC50) [3] | CC50 at 4 days [4] | IC50 [5, 13] | IC50 [6] | toxicity estimated visually [7] | anti-VACV activity in virus yield inhibition assay (in words) [8] | IC50 [9] | IC90 [10] | cytotoxicity (cytopathic effect) [11] | IC50 ([12]; Orthopoxvirus vaccinia) | inhibition at 4 µg/mL ([12]; Orthopoxvirus vaccinia, 4 μg/mL, read-out: inhibition of virus spread) | IC50 ([5]; Vero 76, read-out: mean IC50 against HHV-2 TK-, mean over TK- isolates 1253 and 10161, CPE inhibition, Vero-76 cells) | mean IC50 against HHV-2 TK- ([5]; mean over TK- isolates 1253 and 10161, CPE inhibition, Vero-76 cells) | IC50 virus spread inhibition [12]
1 | Nc1nc2c(ncn2COCCO)c(=O)[nH]1 [Acyclovir, acyclovir] | 15 µg/mL (≈ 66.6 µM) | >6.7 | 0.49 µg/mL (≈ 2.18 µM) | >204 | 9.3 µg/mL (≈ 41.3 µM) | >11 | > 100 µg/mL | 12.2 µg/mL (≈ 54.2 µM) | – | – | – | – | – | – | – | – | – | – | –
2 | Nc1ccn(C[C@@H](CO)OCP(=O)(O)O)c(=O)n1 [Cidofovir, cidofovir] | 1.2 µg/mL (≈ 4.3 µM) | >83 | 4.3 µg/mL (≈ 15.4 µM) | >23 | 0.22 µg/mL (≈ 0.788 µM) | >450 | > 100 µg/mL | 0.71 µg/mL (≈ 2.54 µM) | 9.7 µg/mL (≈ 34.7 µM) | – | – | – | – | – | – | – | – | – | –
3 | COc1cc([C@@H]2c3cc(OC)c(OC)cc3C[C@H](CO)[C@H]2CO[C@@H]2OC[C@@H](O)[C@H](O)[C@H]2O)ccc1O [KPB-100, scaphopetalone] | 4.5 µg/mL (≈ 8.88 µM) | >5.6 | 5.4 µg/mL (≈ 10.7 µM) | >4.6 | 4.6 µg/mL (≈ 9.08 µM) | >5.4 | > 25 µg/mL | – | 3.1 µg/mL (≈ 6.12 µM) | 20% | exhibited anti-VACV activities | 2.5 µg/mL (≈ 4.94 µM) | 3 µg/mL (≈ 5.92 µM) | < 20% | 1.63 µg/mL (≈ 3.22 µM) | ~100% | 4.5 µg/mL (≈ 8.88 µM) | 4.55 µg/mL | –
4 | COc1cc(O)cc(O[C@@H]2O[C@H](COC(=O)c3cc(OC)c(O)c(OC)c3)[C@@H](O)[C@H](O)[C@H]2O)c1 [KPB-200] | – | – | – | – | – | – | – | – | 7.4 µg/mL (≈ 15.3 µM) | – | exhibited anti-VACV activities | 2.9 µg/mL (≈ 6.01 µM) | – | < 20% | 13.2 µg/mL (≈ 27.4 µM) | – | – | – | 13.19 µg/mL (≈ 27.3 µM)

Source: PMC6130675 (Pharmaceutical Biology, 2017)
